Tested on: Chlamydomonas reinhardtii
Test: 8-point dose response assay (0.25-30 μM)
Type: cell-based
Design: reference not given here
Details: 8-point dose response, Nile Red lipid accumulation; for Dose Response Assay 0.25 μM: 0.25 μM compound; for Dose Response Assay 0.625 μM: 0.625 μM compound; for Dose Response Assay 1.25 μM: 1.25 μM compound; for Dose Response Assay 2.5 μM: 2.5 μM compound; for Dose Response Assay 5 μM: 5 μM compound; for Dose Response Assay 10 μM: 10 μM compound; for Dose Response Assay 15 μM: 15 μM compound; for Dose Response Assay 30 μM: 30 μM compound
Procedure: A large scale in vivo high throughput screen (HTS) was performed to identify small compounds that stimulate lipid production and accumulation using the model organism Chlamydomonas reinhardtii. The HTS employed a 384-well microplate format in which cells were allowed to grow in the presence of the test compounds at 10 μM final concentration for 72 hours.
The screening library included 43,736 compounds (ChemBridge, Corp). […] A sub-set of compounds were retested using an 8-point dose response assay (0.25-30 μM). Compounds were further assessed visually using a Nikon Ti-inverted microscope (60×) to reconfirm lipid droplet accumulation was induced.

Cc1ccc(S(=O)(=O)c2ccc(-c3ccc([N+](=O)[O-])cc3)cc2)cc1 [Compound 2]
Dose Response Assay 0.25 μM: 0.96 | Dose Response Assay 0.625 μM: 1.01 | Dose Response Assay 1.25 μM: 0.94 | Dose Response Assay 2.5 μM: 0.99 | Dose Response Assay 5 μM: 1.1 | Dose Response Assay 10 μM: 1.53 | Dose Response Assay 15 μM: 1.34 | Dose Response Assay 30 μM: 2.11

Cc1cccc(N2CCN(Cc3ccc([N+](=O)[O-])cc3)CC2)c1C [Compound 5]
Dose Response Assay 0.25 μM: 0.97 | Dose Response Assay 0.625 μM: 0.85 | Dose Response Assay 1.25 μM: 0.80 | Dose Response Assay 2.5 μM: 0.91 | Dose Response Assay 5 μM: 1.28 | Dose Response Assay 10 μM: 2.07 | Dose Response Assay 15 μM: 1.96 | Dose Response Assay 30 μM: 2.81

O=C(Nc1ccc([N+](=O)[O-])cc1)c1ccccc1Cl [Compound 11]
Dose Response Assay 0.25 μM: 1.02 | Dose Response Assay 0.625 μM: 1.12 | Dose Response Assay 1.25 μM: 0.97 | Dose Response Assay 2.5 μM: 0.93 | Dose Response Assay 5 μM: 1.46 | Dose Response Assay 10 μM: 2.78 | Dose Response Assay 15 μM: 2.28 | Dose Response Assay 30 μM: 1.78

Cc1c(C(=O)Nc2ccc(F)c(F)c2)cccc1[N+](=O)[O-] [Compound 17]
Dose Response Assay 0.25 μM: 1.09 | Dose Response Assay 0.625 μM: 1.03 | Dose Response Assay 1.25 μM: 0.89 | Dose Response Assay 2.5 μM: 0.89 | Dose Response Assay 5 μM: 1.07 | Dose Response Assay 10 μM: 0.92 | Dose Response Assay 15 μM: 1.04 | Dose Response Assay 30 μM: 1.67

CC(=O)Nc1ccc(S(=O)(=O)Nc2cc([N+](=O)[O-])ccc2C)cc1 [Compound 18]
Dose Response Assay 0.25 μM: 1.01 | Dose Response Assay 0.625 μM: 0.97 | Dose Response Assay 1.25 μM: 0.89 | Dose Response Assay 2.5 μM: 1.13 | Dose Response Assay 5 μM: 1.17 | Dose Response Assay 10 μM: 1.19 | Dose Response Assay 15 μM: 1.31 | Dose Response Assay 30 μM: 1.29

CC(=O)c1nc2cc([N+](=O)[O-])ccc2n1Cc1ccccc1 [Compound 23]
Dose Response Assay 0.25 μM: 1.02 | Dose Response Assay 0.625 μM: 1 | Dose Response Assay 1.25 μM: 0.79 | Dose Response Assay 2.5 μM: 0.78 | Dose Response Assay 5 μM: 1.04 | Dose Response Assay 10 μM: 1.1 | Dose Response Assay 15 μM: 1.43 | Dose Response Assay 30 μM: 1.15

COc1ccc(C(=O)NCCN2CCOCC2)cc1[N+](=O)[O-] [Compound 24]
Dose Response Assay 0.25 μM: 1.13 | Dose Response Assay 0.625 μM: 0.87 | Dose Response Assay 1.25 μM: 0.84 | Dose Response Assay 2.5 μM: 0.97 | Dose Response Assay 5 μM: 0.99 | Dose Response Assay 10 μM: 1.18 | Dose Response Assay 15 μM: 1.19 | Dose Response Assay 30 μM: 1.25

C=CCn1c(SCC(=O)O)nnc1-c1ccc([N+](=O)[O-])cc1 [Compound 25]
Dose Response Assay 0.25 μM: 1.15 | Dose Response Assay 0.625 μM: 1.13 | Dose Response Assay 1.25 μM: 0.99 | Dose Response Assay 2.5 μM: 1.02 | Dose Response Assay 5 μM: 1 | Dose Response Assay 10 μM: 1 | Dose Response Assay 15 μM: 1.33 | Dose Response Assay 30 μM: 1.34

Cc1ccsc1C=C(C#N)c1nc(-c2ccc([N+](=O)[O-])cc2)cs1 [Compound 30]
Dose Response Assay 0.25 μM: 1.15 | Dose Response Assay 0.625 μM: 1.05 | Dose Response Assay 1.25 μM: 1.16 | Dose Response Assay 2.5 μM: 0.84 | Dose Response Assay 5 μM: 0.99 | Dose Response Assay 10 μM: 0.82 | Dose Response Assay 15 μM: 1.37 | Dose Response Assay 30 μM: 1.73

Cc1cc(C)c(NC(=O)COc2ccccc2[N+](=O)[O-])c(C)c1 [Compound 35]
Dose Response Assay 0.25 μM: 1.09 | Dose Response Assay 0.625 μM: 1.49 | Dose Response Assay 1.25 μM: 1.23 | Dose Response Assay 2.5 μM: 1.96 | Dose Response Assay 5 μM: 1.91 | Dose Response Assay 10 μM: 2.65 | Dose Response Assay 15 μM: 2.5 | Dose Response Assay 30 μM: 2.51

O=C(Nc1ccc(Cc2ccncc2)cc1)c1ccc([N+](=O)[O-])cc1Cl [Compound 37]
Dose Response Assay 0.25 μM: 1.04 | Dose Response Assay 0.625 μM: 0.97 | Dose Response Assay 1.25 μM: 1.39 | Dose Response Assay 2.5 μM: 1.85 | Dose Response Assay 5 μM: 1.93 | Dose Response Assay 10 μM: 1.76 | Dose Response Assay 15 μM: 1.16 | Dose Response Assay 30 μM: 1.15

O=C(Nc1ccc([N+](=O)[O-])cc1)c1cccc(Cl)c1Cl [Compound 38]
Dose Response Assay 0.25 μM: 1.06 | Dose Response Assay 0.625 μM: 1.38 | Dose Response Assay 1.25 μM: 1.23 | Dose Response Assay 2.5 μM: 2.23 | Dose Response Assay 5 μM: 2.64 | Dose Response Assay 10 μM: 2.94 | Dose Response Assay 15 μM: 2.61 | Dose Response Assay 30 μM: 2

O=[N+]([O-])c1ccccc1CN1CCN(CC2CC3C=CC2C3)CC1 (centres unmarked) [Compound 39]
Dose Response Assay 0.25 μM: 1.17 | Dose Response Assay 0.625 μM: 1.13 | Dose Response Assay 1.25 μM: 0.99 | Dose Response Assay 2.5 μM: 1.18 | Dose Response Assay 5 μM: 1.18 | Dose Response Assay 10 μM: 0.88 | Dose Response Assay 15 μM: 1.57 | Dose Response Assay 30 μM: 1.38

COc1ccc(C(=O)c2ccc(N3CCN(C)CC3)c([N+](=O)[O-])c2)cc1 [Compound 45]
Dose Response Assay 0.25 μM: 0.93 | Dose Response Assay 0.625 μM: 0.99 | Dose Response Assay 1.25 μM: 1.57 | Dose Response Assay 2.5 μM: 2.3 | Dose Response Assay 5 μM: 3.61 | Dose Response Assay 10 μM: 2.02 | Dose Response Assay 15 μM: 2.06 | Dose Response Assay 30 μM: 1.56

Cc1ccc(C(=O)c2ccc(N3CCN(C)CC3)c([N+](=O)[O-])c2)cc1 [Compound 46]
Dose Response Assay 0.25 μM: 1.23 | Dose Response Assay 0.625 μM: 0.96 | Dose Response Assay 1.25 μM: 0.94 | Dose Response Assay 2.5 μM: 1.61 | Dose Response Assay 5 μM: 2.31 | Dose Response Assay 10 μM: 2.75 | Dose Response Assay 15 μM: 2.63 | Dose Response Assay 30 μM: 1.78

Cc1c(NC(=O)COc2ccc(Br)cc2)cccc1[N+](=O)[O-] [Compound 47]
Dose Response Assay 0.25 μM: 0.90 | Dose Response Assay 0.625 μM: 0.81 | Dose Response Assay 1.25 μM: 0.91 | Dose Response Assay 2.5 μM: 1.3 | Dose Response Assay 5 μM: 0.95 | Dose Response Assay 10 μM: 1.37 | Dose Response Assay 15 μM: 1.27 | Dose Response Assay 30 μM: 1.19

O=C(Nc1ccccc1C(=O)NCc1ccccc1)c1ccc([N+](=O)[O-])cc1 [Compound 53]
Dose Response Assay 0.25 μM: 1.06 | Dose Response Assay 0.625 μM: 1.38 | Dose Response Assay 1.25 μM: 1.13 | Dose Response Assay 2.5 μM: 1.1 | Dose Response Assay 5 μM: 1.42 | Dose Response Assay 10 μM: 1.57 | Dose Response Assay 15 μM: 1.61 | Dose Response Assay 30 μM: 2.49

Cc1ccc(C(=O)Nc2ccccc2C(=O)NC(C)C)cc1[N+](=O)[O-] [Compound 54]
Dose Response Assay 0.25 μM: 1.05 | Dose Response Assay 0.625 μM: 1.53 | Dose Response Assay 1.25 μM: 2.13 | Dose Response Assay 2.5 μM: 2.32 | Dose Response Assay 5 μM: 2.79 | Dose Response Assay 10 μM: 1.73 | Dose Response Assay 15 μM: 1.78 | Dose Response Assay 30 μM: 1.58

Cc1c(C(=O)Nc2ccccc2C(=O)NCc2ccccc2)cccc1[N+](=O)[O-] [Compound 55]
Dose Response Assay 0.25 μM: 1.3 | Dose Response Assay 0.625 μM: 1.77 | Dose Response Assay 1.25 μM: 2.01 | Dose Response Assay 2.5 μM: 2.27 | Dose Response Assay 5 μM: 2.23 | Dose Response Assay 10 μM: 2.04 | Dose Response Assay 15 μM: 2.26 | Dose Response Assay 30 μM: 2.77

From US10351883B2, “Compounds for increasing lipid synthesis and storage” (NUtech Ventures, priority 2015, dated 2019)
